In publication PMC13099141, “Antibiotic potentiation and inhibition of cross-resistance in pathogens associated with cystic fibrosis” (eLife, 2026):

How the values were obtained:
Test in all cases: nitrocefin hydrolysis, absorbance at […] nm, sonicated lysate
Assay type in all cases: biochemical
Details in all cases: 0.4 mM nitrocefin, 100 mM sodium phosphate pH 7.0, 25 °C; dsbA+ E. coli
OXA-50 = biological target: T1, OXA-50 (Pseudomonas aeruginosa, UniProt G3XCV9)
T1 construct: gene PA5514; full-length class D beta-lactamase from pDM1-blaOXA-50 in E. coli MC1000, lysate; gene from clinical isolate
T1 sequence (G3XCV9 entry or part of it): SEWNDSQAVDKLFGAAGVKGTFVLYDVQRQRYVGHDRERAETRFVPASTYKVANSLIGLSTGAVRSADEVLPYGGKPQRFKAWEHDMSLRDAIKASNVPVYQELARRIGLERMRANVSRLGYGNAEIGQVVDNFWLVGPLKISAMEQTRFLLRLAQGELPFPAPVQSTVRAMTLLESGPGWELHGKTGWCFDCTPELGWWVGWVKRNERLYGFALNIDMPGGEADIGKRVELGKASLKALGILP

AIM-1 = biological target: T2, AIM-1 (Pseudomonas aeruginosa, UniProt B5DCA0)
T2 construct: gene blaAIM-1; full-length class B3 metallo-beta-lactamase from pDM1-blaAIM-1 in E. coli MC1000, lysate; gene from clinical isolate
T2 sequence (B5DCA0 entry or part of it): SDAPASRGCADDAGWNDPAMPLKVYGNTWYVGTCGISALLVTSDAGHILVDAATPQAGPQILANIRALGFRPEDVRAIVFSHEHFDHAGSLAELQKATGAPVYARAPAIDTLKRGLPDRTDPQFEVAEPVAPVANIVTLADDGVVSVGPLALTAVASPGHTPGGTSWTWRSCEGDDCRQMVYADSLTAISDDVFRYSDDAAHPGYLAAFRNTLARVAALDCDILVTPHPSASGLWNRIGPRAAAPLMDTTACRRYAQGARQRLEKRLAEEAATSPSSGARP

BEL-1 = biological target: T3, BEL-1 (Pseudomonas aeruginosa, UniProt Q3SAW3)
T3 construct: gene bla(BEL1); full-length class A beta-lactamase from plasmid pDM1-blaBEL-1 in E. coli MC1000, sonicated lysate; gene from clinical isolate
T3 sequence (Q3SAW3 entry or part of it): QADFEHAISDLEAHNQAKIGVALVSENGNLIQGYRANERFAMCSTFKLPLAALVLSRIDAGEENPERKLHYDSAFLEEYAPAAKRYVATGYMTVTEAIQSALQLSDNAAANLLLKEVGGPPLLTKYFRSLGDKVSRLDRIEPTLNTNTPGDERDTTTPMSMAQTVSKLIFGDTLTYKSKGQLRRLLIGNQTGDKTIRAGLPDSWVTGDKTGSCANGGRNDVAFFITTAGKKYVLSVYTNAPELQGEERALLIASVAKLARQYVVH

CARB-2 = biological target: T4, CARB-2 (Pseudomonas aeruginosa, UniProt Q03170)
T4 construct: gene pse1; full-length class A carbenicillinase, synthetic gene in pDM1, E. coli MC1000 lysate
T4 sequence (Q03170 18-288): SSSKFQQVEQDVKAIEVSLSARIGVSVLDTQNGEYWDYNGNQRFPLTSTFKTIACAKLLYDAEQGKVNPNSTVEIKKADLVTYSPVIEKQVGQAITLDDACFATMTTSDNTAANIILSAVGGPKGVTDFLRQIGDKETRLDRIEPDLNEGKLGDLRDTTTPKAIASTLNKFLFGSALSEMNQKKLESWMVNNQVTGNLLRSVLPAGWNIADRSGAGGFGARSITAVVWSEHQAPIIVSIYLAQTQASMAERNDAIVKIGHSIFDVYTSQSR

POM-1 = biological target: T5, POM-1 (Metapseudomonas otitidis, UniProt E6Y3G9)
T5 construct: gene pom1; full-length class B3 metallo-beta-lactamase from pDM1-blaPOM-1 in E. coli MC1000, lysate; gene from clinical isolate
T5 sequence (E6Y3G9 entry or part of it): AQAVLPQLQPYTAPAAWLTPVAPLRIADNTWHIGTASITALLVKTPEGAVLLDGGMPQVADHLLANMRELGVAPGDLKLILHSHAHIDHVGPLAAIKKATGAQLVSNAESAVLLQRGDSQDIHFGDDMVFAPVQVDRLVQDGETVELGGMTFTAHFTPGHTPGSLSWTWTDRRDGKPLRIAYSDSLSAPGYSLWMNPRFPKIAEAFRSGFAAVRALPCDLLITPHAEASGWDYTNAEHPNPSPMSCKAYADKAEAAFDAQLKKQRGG

SMB-1 = biological target: T6, SMB-1 (Serratia marcescens, UniProt G5ELM3)
T6 construct: full-length class B3 metallo-beta-lactamase, synthetic gene in pDM1, E. coli MC1000 lysate
T6 sequence (G5ELM3 entry or part of it): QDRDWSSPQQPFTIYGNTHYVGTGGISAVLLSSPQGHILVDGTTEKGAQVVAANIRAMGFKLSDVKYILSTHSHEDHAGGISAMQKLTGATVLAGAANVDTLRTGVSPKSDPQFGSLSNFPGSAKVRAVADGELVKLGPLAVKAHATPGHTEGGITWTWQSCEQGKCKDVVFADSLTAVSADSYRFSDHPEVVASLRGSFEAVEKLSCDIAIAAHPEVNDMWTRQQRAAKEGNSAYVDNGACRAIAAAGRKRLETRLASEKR

Compound: O=C(Cc1cccs1)N[C@@H]1C(=O)N2C(C(=O)O)=C(/C=C/c3ccc([N+](=O)[O-])cc3[N+](=O)[O-])CS[C@H]12 [nitrocefin]
- nitrocefin hydrolysis, absorbance at 490 nm, sonicated lysate (OXA-50): The hydrolysis of the chromogenic β-lactam nitrocefin by cysteine-containing β-lactamases is impaired
- nitrocefin hydrolysis, absorbance at 490 nm, sonicated lysate (AIM-1): The hydrolysis of the chromogenic β-lactam nitrocefin by cysteine-containing β-lactamases is impaired
- nitrocefin hydrolysis, absorbance at 490 nm, sonicated lysate (BEL-1): The hydrolysis of the chromogenic β-lactam nitrocefin by cysteine-containing β-lactamases is impaired
- nitrocefin hydrolysis, absorbance at 490 nm, sonicated lysate (CARB-2): The hydrolysis of the chromogenic β-lactam nitrocefin by cysteine-containing β-lactamases is impaired
- nitrocefin hydrolysis, absorbance at 490 nm, sonicated lysate (POM-1): The hydrolytic activities of both tested β-lactamases are significantly reduced in the absence of DsbA
- nitrocefin hydrolysis, absorbance at 490 nm, sonicated lysate (SMB-1): The hydrolytic activities of both tested β-lactamases are significantly reduced in the absence of DsbA
